Measured values taken from patent publication US20240325548A1, “DYNAMIC BIOACTIVE SCAFFOLDS AND THERAPEUTIC USES THEREOF AFTER CNS INJURY” (Northwestern University, priority 2021, published 2024).

Legend:
[1] = test system: murine model of severe spinal cord injury (SCI); assay: Angiogenesis at the site of SCI (DiI labelling, BrdU/CD31); type: in vivo, mouse
Description: (§1) All experiments were conducted at the Simpson Querrey Institute at Northwestern University. 182 CD1 mice (Charles River) were subjects of this study (N=38 Sham, N=38 IKVAV PA2 alone, N=38 IKVAV PA2+FGF2 PA1, N=38 IKVAV PA2+FGF2 PA2, N=12 IKVAV PA1, N=12 Backbone PA, N=6 IKVAV PA4). The age of animals used in the study was in the range of 10-16 weeks. 8 independent in vivo experiments were carried out (injury+PA injection) and each of the 8 experiments had animals of the exact same age which were injected with at least the 4 main treatment groups: Sham, IKVAV PA2 alone, IKVAV PA2+FGF2 PA1, and IKVAV PA2+FGF2 PA2. Animals were anesthetized using 2.5% isoflurane gas with oxygen. […]
(§2) PAs (dissolved in sterile NaCl 0.9% solution at 1 wt %) were injected 24 h after SCI using a glass capillary micropipette (Sutter Instruments, Novato, CA) (outer diameter, 100 m) coated with Sigmacote (Sigma-Aldrich) to reduce surface tension as described elsewhere (19). […] The micropipette was lowered to a depth of 750 m measured from the dorsal surface of the cord, and 4-6 μL of the diluted amphiphile solution was injected at 1 L/min. […]
To assess in vitro tubulogenesis and in vivo angiogenesis, an ImageJ (Fiji) script was established to automatically calculate 1) area fraction of blood vessels, 2) blood vessels length, and 3) number of branches. Images were processed, binarized and analyzed. […]

[2] = test system: murine model of severe spinal cord injury (SCI); assay: Hindlimb locomotor evaluation after SCI (BMS, footprint analysis); type: in vivo, mouse; conditions: three weeks post-injury
Description: as §1
Mice that passed this inclusion criterion were randomized into experimental groups for PA injection and were thereafter evaluated blind to their experimental condition.
as §2
The motor function was evaluated with the locomotor open-field rating scale on the Basso Mouse Scale (BMS). […]

C16-A2G2E4GIKVAV [IKVAV PA2]
newly formed blood vessels (number of BrdU+/CD31+ cells) ([1]; 12 weeks after injury): very modest but yet significantly increased
vascular area fraction, vascular length, and branching ([1]; DiI-labelled vessels, transverse sections): did not differ significantly
BMS open field locomotor score [2]: 4.3±0.5
